Measurements reported in EP0617001B1, “Phenoxyphenylacetic acid derivatives” (Merck & Co., Inc., priority 1993, dated 1994).
Where a name gives a salt, the structure may show the parent alone.

What was measured:
Anesthetized Male Dog [1] = experiment: ET-1 induced changes in diastolic blood pressure (DBP) and intra-urethral pressure (IUP) in the anesthetized male dog; type: in vivo, mongrel dog; conditions: for % INHIBITION of ET-1 induced change in DBP, DEPRESSOR / % INHIBITION of ET-1 induced change in DBP, PRESSOR / % INHIBITION of ET-1 induced change in IUP, PRESSOR: 30 mg/kg intra-venous
Method: Methodology for determining whether an ET-1 selective antagonist could inhibit the ET-1 mediated prostatic urethral contractions in a mongrel dog model:
(§1) On separate days, two fasted male mongrel dogs (HRP, Inc.) weighing 11.0 and 12.4 kg, were anesthetized with Sodium Pentobarbital (Steris Laboratories, Inc.) at 35 mg/kg (i.v.) to effect, followed by 4 mg/kg/hr (i.v.) infusion. A cuffed endotracheal tube was inserted and each animal was ventilated with room air using a positive displacement large animal ventilator (Harvard Apparatus) at a rate of 18 breaths/minute and an average tidal volume of 18 ml/kg body weight. Body temperature was maintained with a heating pad and heat lamp using a temperature controller (YSI) and esophageal probe. Two catheters (PE 260) were placed in the aorta via the femoral arteries (one in each artery) for administration of endothelin or phenylephrine and for continuous direct monitoring of blood pressure and heart rate using a Statham blood pressure transducer (Spectramed) and a computer system (Modular Instruments, Inc.). Two other catheters (PE 260) were placed in the vena cava via the femoral veins (one catheter in each vein) for administration of pentobarbital and N-(4-iso-propylbenzenesulfonyl)-α-(4-carboxy-2-n-propylphenoxy)-3,4-methylenedioxyphenylacetamide dipotassium salt [Example 42]. A supra-pubic incision approximately one-half inch lateral to the penis was made to expose the ureters, urinary bladder, prostate, and urethra. The dome of the bladder was retracted to facilitate dissection of the ureters. The ureters were cannulated with PE 90 and tied off to the bladder. Umbilical tape was passed beneath the urethra at the bladder neck and another piece of tape was placed approximately 1-2 cm. distal to the prostate. The bladder dome was incised and a Micro-tip® catheter transducer (Millar Instruments, Inc.) was advanced into the urethra. The neck of the bladder was ligated with the umbilical tape to hold the transducer. The bladder incision was sutured wit 3-0 silk (purse string suture). The transducer was withdrawn until it was positioned in the prostatic urethra. The position of the Micro-tip® catheter was verified by gently squeezing the prostate and noting the large change in urethral pressure prior to ligating the distal urethra.
(§2) Phenylephrine (PB) (10 µg/kg, intra-arterial) was administered and pressor effects on diastolic blood pressure (DBP) and intra-urethral pressure (IUP) were noted. When blood pressure returned to baseline, endothelin-1 (ET-1) (1 nmole/kg, intra-arterial) was administered. Changes in DBP and IUP were monitored for one hour and an ET-1 selective endothelin antagonist, such as the compound of Example 42, N-(4-iso-propylbenzene-sulfonyl)-α-(4-carboxy-2-n-propylphenoxy)-3,4-methylenedioxyphenyl-acetamide dipotassium salt (30 mg/kg, intra-venous) was administered. Ten to fifteen minutes later when blood pressure had stabilized, ET-1 was administered again, and inhibition of ET-1 induced effects were noted. PE was administered at the end of the experiment to verify specificity for ET-1 blockade. The dogs were euthanized with an overdose of pentobarbital followed by saturated KCl.
(§3) All drugs were dissolved in isotonic saline solution.

Anesthetized Male Dog [2] = experiment: Phenylephrine (PE)-induced changes in DBP and IUP in the anesthetized male dog (specificity for ET-1 blockade); type: in vivo, mongrel dog
Method: as §1, with “Two other catheters (PE 260) were placed in the vena cava via the femoral veins (one catheter in each vein) for administration of pentobarbital and N-(4-iso-propylbenzenesulfonyl)-α-(4-carboxy-2-n-propylphenoxy)-3,4-methylenedioxyphenylacetamide dipotassium salt [Example 42].” left out
as §2, with “Changes in DBP and IUP were monitored for one hour and an ET-1 selective endothelin antagonist, such as the compound of Example 42, N-(4-iso-propylbenzene-sulfonyl)-α-(4-carboxy-2-n-propylphenoxy)-3,4-methylenedioxyphenyl-acetamide dipotassium salt (30 mg/kg, intra-venous) was administered.” left out
as §3

rat prostate = experiment: In situ rat prostate: ET-1 induced contraction; type: in vivo, Sprague-Dawley rats; conditions: antagonist injected IA
Method: Male Sprague-Dawley rats (Taconic Farms) weighing 300-400 grams were anesthetized with urethane (1.75 g/kg, ip), a tracheal cannula was inserted, and the femoral artery was cannulated. Core body temperature was maintained at 37 + 0.5 °C. A 4-5 cm midline abdominal incision was made to expose the bladder and prostate. The prostate was separated from the bladder and surrounding capsule by blunt dissection with a forcep. A length of surgical silk was gently secured around the anterior tips of the prostate lobes. A second length of surgical silk attached to an atraumatic needle was passed through and tied to the base of the prostate approximately 10-12 mm posterior to the first tie. The posterior ligature was secured to an anchor post whereas the anterior ligature was connected to a Grass FT03 transducer (Grass Instruments, Quincy, MA) and maintained at a tension of 1 g. Signals from the transducer were amplified and recorded on a polygraph (Hewlett-Packard 8805B amplifiers and 7758A recorder, Palo Alto, CA). After equilibrating for approximately 15 min, the rats were administered pretreatment drugs (atropine 1 mg/kg, (+) propranolol 1 mg/kg) 10 min apart through the intra-arterial (IA) cannula. […] The response of the prostate to FT-1 was quantified by measuring the change (Δ) from baseline tension to the peak of the response during the 5-minute period after the third FT-1 injection.

[3] = ET-1 challenge after antagonist 30 mg/kg intra-venous, MEAN, n=2 dogs
[4] = ET-1 challenge after antagonist 30 mg/kg intra-venous, dog HG FMHK
[5] = ET-1 challenge after antagonist 30 mg/kg intra-venous, dog HG FMJC
[6] = 30 mg/kg intra-venous, dog HG FMJC
[7] = Phenylephrine alone, 10 µg/kg intra-arterial, dog HG FMJC
[8] = ET-1 (i.a.) alone, 1 nmole/kg, MEAN, n=2 dogs
[9] = ET-1 (i.a.) alone, 1 nmole/kg, dog HG FMHK
[10] = ET-1 (i.a.) alone, 1 nmole/kg, dog HG FMJC

CCCc1cc(C(=O)O)ccc1OC(C(=O)NS(=O)(=O)c1ccc(C(C)C)cc1)c1ccc2c(c1)OCO2 (stereo not drawn) [Example 42, N-(4-iso-propylbenzenesulfonyl)-α-(4-carboxy-2-n-propylphenoxy)-3,4-methylenedioxyphenylacetamide dipotassium salt]
% INHIBITION of ET-1 induced change in DBP, DEPRESSOR (Anesthetized Male Dog [1]; MEAN, n=2 dogs): 69% | % INHIBITION of ET-1 induced change in DBP, PRESSOR (Anesthetized Male Dog [1]; MEAN, n=2 dogs): 76% | % INHIBITION of ET-1 induced change in IUP, PRESSOR (Anesthetized Male Dog [1]; MEAN, n=2 dogs): 93% | % INHIBITION of ET-1 induced change in DBP, DEPRESSOR (Anesthetized Male Dog [1]; dog HG FMHK): 67% | % INHIBITION of ET-1 induced change in DBP, PRESSOR (Anesthetized Male Dog [1]; dog HG FMHK): 94% | % INHIBITION of ET-1 induced change in IUP, PRESSOR (Anesthetized Male Dog [1]; dog HG FMHK): 91% | % INHIBITION of ET-1 induced change in DBP, DEPRESSOR (Anesthetized Male Dog [1]; dog HG FMJC): 70% | % INHIBITION of ET-1 induced change in DBP, PRESSOR (Anesthetized Male Dog [1]; dog HG FMJC): 58% | % INHIBITION of ET-1 induced change in IUP, PRESSOR (Anesthetized Male Dog [1]; dog HG FMJC): 94% | CHANGE IN DBP (mmHg) DEPRESSOR (Anesthetized Male Dog [1]; [3]): -4 mmHg | CHANGE IN DBP (mmHg) PRESSOR (Anesthetized Male Dog [1]; [3]): 5 mmHg | CHANGE IN IUP (mmHg) PRESSOR (Anesthetized Male Dog [1]; [3]): 1 mmHg | CHANGE IN DBP (mmHg) DEPRESSOR (Anesthetized Male Dog [1]; [4]): -5 mmHg | CHANGE IN DBP (mmHg) PRESSOR (Anesthetized Male Dog [1]; [4]): 2 mmHg | CHANGE IN IUP (mmHg) PRESSOR (Anesthetized Male Dog [1]; [4]): 1 mmHg | CHANGE IN DBP (mmHg) DEPRESSOR (Anesthetized Male Dog [1]; [5]): -3 mmHg | CHANGE IN DBP (mmHg) PRESSOR (Anesthetized Male Dog [1]; [5]): 8 mmHg | CHANGE IN IUP (mmHg) PRESSOR (Anesthetized Male Dog [1]; [5]): 1 mmHg | hemodynamic and prostatic urethral responses to ET-1 (Anesthetized Male Dog [1]; anesthetized dogs): specifically inhibited | % Inhibition of Control, PE-induced INCREASE IN DBP (Anesthetized Male Dog [2]; [6]): 35% | % Inhibition of Control, PE-induced INCREASE IN IUP (Anesthetized Male Dog [2]; [6]): 13% | Intra-arterial PE-induced increases in DBP and IUP after administration (Anesthetized Male Dog [2]; one dog studied): did not change significantly | inhibition of ET-1 to contract the prostate (rat prostate): specific inhibition

CNC[C@H](O)c1cccc(O)c1 [Phenylephrine, reference compound]
INCREASE IN DBP (mmHg) (Anesthetized Male Dog [2]; [7]): 17 mmHg | INCREASE IN IUP (mmHg) (Anesthetized Male Dog [2]; [7]): 31 mmHg

Endothelin-1 [ET-1]
CHANGE IN DBP (mmHg) DEPRESSOR (Anesthetized Male Dog [1]; [8]): -13 mmHg | CHANGE IN DBP (mmHg) PRESSOR (Anesthetized Male Dog [1]; [8]): 26 mmHg | CHANGE IN IUP (mmHg) PRESSOR (Anesthetized Male Dog [1]; [8]): 15 mmHg | CHANGE IN DBP (mmHg) DEPRESSOR (Anesthetized Male Dog [1]; [9]): -15 mmHg | CHANGE IN DBP (mmHg) PRESSOR (Anesthetized Male Dog [1]; [9]): 33 mmHg | CHANGE IN IUP (mmHg) PRESSOR (Anesthetized Male Dog [1]; [9]): 11 mmHg | CHANGE IN DBP (mmHg) DEPRESSOR (Anesthetized Male Dog [1]; [10]): -10 mmHg | CHANGE IN DBP (mmHg) PRESSOR (Anesthetized Male Dog [1]; [10]): 19 mmHg | CHANGE IN IUP (mmHg) PRESSOR (Anesthetized Male Dog [1]; [10]): 18 mmHg | decrease in DBP (Anesthetized Male Dog [1]; ET-1 alone, 1 nmole/kg intra-arterial, average of both dogs): 13 mmHg
